Results as given in US20260060907A1, “GADUSOL-CONTAINING SUNSCREEN FORMULATIONS” (ARCAEA, LLC, priority 2022, published 2026).
One block for each compound: values may come before it.

Experiments:
erythrocytes = assay: Cell-based antioxidant protection in erythrocytes (CAP-e) assay; details: for lysis of the cells: highest dose (3.3 mg/ml), erythrocytes
Procedure: The cell-based antioxidant protection in erythrocytes (CAP-e) assay (Honzel et. al., 2008, and Jensen GS. Cell-based antioxidant protection assay, also disclosed in U.S. Pat. No. 8,465,988, incorporated herein in its entirety by this reference) was used. This testing was selected to measure antioxidant power but, in addition, the method ensures that the antioxidant agent crosses the cell's lipid boundary layer so that only intracytoplasmic activity is measured. […] The tested concentrations for both gadusol and the Porphyra-334 ranged from 0.001 to 3.33 mg/mL.

E. coli = assay: Toxicity towards E. coli; assay type: cell-based
Description: (§1) The amount of gadusol incorporated to provide the intended in vivo sunscreen SPF boosting activity can be from about 0.25, 0.50, 0.75, 1.0, 1.25, 1.50, 1.75, or 2.0% (w/w) in the sunscreen formulation that includes a physical/inorganic sunscreen active material, where any value can form an upper or lower endpoint, as appropriate. Still further, the amount of gadusol in the sunscreen formulation can be from about 0.25 to 2.0% (w/w), or from about 0.5 to 1.0% (w/w). In these, and possibly other amounts, gadusol suitably can provide a safe and effective sunscreen boosting effect when combined with sunscreen active ingredients. […] To summarize these safety tests, the cellular toxicity of gadusol was compared to that of a common sunscreen ingredient, oxybenzone. Vero E6 fibroblasts were used to evaluate toxicity. […] Toxicity towards E. coli was also not found.

Ames Test = assay type: cell-based
Description: as §1

[1] = Stability of aqueous gadusol under acidic conditions (spectrophotometric at 296 nm); assay type: physicochemical; details: after 90 days at pH 2.5
Procedure: (§2) Yet further, the inventors have determined that the stability of aqueous gadusol can be improved when stored under acidic conditions. For example, 90% gadusol activity can be retained after 90 days at pH 2.5, where the concentration of gadusol is determined spectrophotometrically at 296 nm where it has an extinction coefficient of 21,800 M^−1 cm^−1. A standardized concentration curve can be used to determine an amount of gadusol in a volume sampled from a test solution at various time periods. Therefore, storage under acidic conditions may be useful for stabilizing gadusol generally, e.g., prior to introduction into a topical formulation. Combining gadusol with another antioxidant may be useful for extending the shelf life or stability of gadusol in a topical formulation.

[2] = UV absorbance of the compounds; assay type: physicochemical; details: at 296 nm
Procedure: as §2

Vero E6 fibroblasts = assay type: cell-based
Description: as §1

[3] = Folin-Ciocalteu antioxidant capacity; assay type: biochemical; details: concentrations ranging from about 0.3 to 10 mg/ml
[4] = In vitro SPF determination on VitroSkin substrate (Labsphere UV-1000, absorbance 290-400 nm); assay type: physicochemical
Procedure: SPF was also evaluated using an in vitro method that utilizes a synthetic/simulated skin as a test substrate. In this regard, VitroSkin® is an advanced testing substrate that effectively mimics the surface properties of human skin. It has been formulated to have topography, pH, critical surface tension, chemical reactivity and ionic strength that is similar to human skin. The procedure for in vitro testing was conducted according to a standard protocol. For testing, the test product was applied in a known amount to the substrate at an application density of 2 mg/cm^2. The in vitro SPF scores were determined using a Labsphere UV-1000 Ultraviolet Transmittance Analyzer. Spectral scans of absorbance of the artificial skin treated with a sample sunscreen formulation were performed in the UV region of 290-400 nm. The in vitro SPF was then calculated using the absorbance scan results. At least 5 in vitro SPF values were recorded for each example formulation and the averages calculated for reporting.
In another example, gadusol was tested by the in vitro method using the Vitroskin substrate in the methodology discussed above. The COS1 formulation having 0.0 and 0.5% (w/w) gadusol and the COS2 formulations were tested with 0, 0.25, 0.5% (w/w) gadusol.

Comet assay = assay type: cell-based
Description: as §1

[5] = In vivo SPF determination (FDA 21 CFR 201.327 SPF test procedure); design: species or system human
Procedure: An in vivo SPF determination was conducted according to FDA, 21 CFR Sec. 201.327, subpart (i), SPF Test Procedure, Sunscreen Drug Products for Over-the-Counter Human Use, Final Monograph, Federal Register, Vol. 76, No. 117, Jun. 17, 2011, the disclosure of which is incorporated herein in its entirety by this reference. Each in vivo test for a sunscreen formulation was tested on three different subjects.
For subject enrollment, the test subjects reported to the testing laboratory and received a complete explanation of the study procedures. Those who participated signed a written, witnessed consent form, and a permission to release personal health information form and provided a brief medical history. The technician did a final examination of the subject's back, between the belt-line and shoulder blades and determined their suitability to participate in this study.
A Xenon Arc Solar Simulator lamp, which has a continuous light spectrum in the UVA and UVB range (290-400 nanometers) was utilized for the in vivo light source. The spectral output of the solar simulator was filtered so that it meets the spectral output requirements for testing Sunscreen Drug Products for over-the-counter human use; FDA Final Monograph, 21 CFR Part 201.327 (i)(1), UV Source, Federal Register, Vol. 76, No. 117, Jun. 17, 2011 and the International Sun Protection Factor (SPF) Test Method, May 2006, the disclosure of which is incorporated herein in its entirety by this reference.
For a baseline value, a series of 5 UV radiation doses expressed as Joules/square meter, increasing in 25% increments, was administered to two unprotected separate locations on each test subject's back, just below the shoulder blades and above the belt-line, to determine the initial unprotected MED (MEDu).
The MEDu was administered in the following 5 dose series, with X representing the amount of UV energy projected to produce the test subject's MEDu (Table C).
On Day 2, subjects returned to the testing laboratory within 16 to 24 hours following completion of the MEDu doses for evaluation of their responses, and to determine each subject's unprotected MED (MEDu). A subject's Minimal Erythemal Dose (MED) was the quantity of erythema effective energy, or dose corresponding to the first site that produced the first unambiguous erythema reaction with well-defined borders. The following grading scale used in this study for determining a MED (+) response. • − No perceptible erythemal response • ? […]
MEDp UV Dose was administered by the technician via a series of 5 UV radiation doses expressed as Joules/square meter, as specified in FDA, 21 CFR, Sec. […]

- lysis of the cells (erythrocytes): caused some lysis of the cells
Compound: COC1=C(NCC(=O)O)C[C@@](O)(CO)CC1=N[C@H](C(=O)O)[C@@H](C)O [Porphyra-334, reference compound]
- effect on the protective action of gadusol (CAP-e) (erythrocytes; gadusol and Porphyra-334 combined): did not interfere with the protective action of the gadusol

Compound: COC1=C(O)CC(O)(CO)C(O)C1=O (stereo not shown) [gadusol]
- Toxicity towards E. coli (E. coli): not found
- mutagenicity in the Ames Test (Ames Test): not to be mutagenic
- gadusol activity retained [1]: 90%
- extinction coefficient [2]: 21,800 M^−1 cm^−1
- cellular toxicity compared to oxybenzone (Vero E6 fibroblasts): less toxic than oxybenzone
- antioxidant power (Folin-Ciocalteu) [3]: substantially equivalent to a mycosporine compound from “nori” seaweed
- greater in vitro SPF when added to a composition containing 10% ZnO ([4]; 0.5% (w/w) gadusol): ~50%
- in vitro absorbance on addition to a 10% ZnO sunscreen formulation ([4]; 0.5% gadusol, from about 290 to about 325 nm, FIG. 6): significantly more absorbance
- in vitro SPF activity of gadusol by itself ([4]; activity of the formulation matrix (1.1) subtracted): 2.5-2.8 SPF units
- toxicity in the comet assay (Comet assay): nor was it toxic
- antioxidant activity (CAP-e) (erythrocytes; at 0.133 mg/ml): Some in vivo antioxidant activity was seen
- antioxidant activity (CAP-e) compared with Porphyra-334 (erythrocytes; at about 1 mg/ml): significantly more active antioxidant
- lysis of the cells (erythrocytes): caused some lysis of the cells
- in vivo SPF, times the SPF conferred by 10% ZnO alone ([5]; 0.5% gadusol (w/w) with 10% ZnO): about 1.35 times
- in vivo SPF, times the SPF conferred by 10% ZnO alone ([5]; 0.75% gadusol (w/w) with 10% ZnO): ~1.51 times
- in vivo SPF, times the SPF conferred by 10% ZnO alone ([5]; 1.0% gadusol (w/w) with 10% ZnO): ~2.0 times
- SPF boost ([5]; gadusol 0.5 to 1% (w/w) in formulation containing 10% ZnO): 135 to 200%
